{"source": "paper PMC8160210", "about": "“Single tryptophan Y160W mutant of homooligomeric E. coli purine nucleoside phosphorylase implies that dimers forming the hexamer are functionally not equivalent” (Scientific Reports, 2021)", "key": {"Y160W PNP mutant [1]": {"biological_target": "T1, Y160W PNP mutant (Escherichia coli, UniProt P0ABP8, Y161W)", "T1 sequence (P0ABP8 2-239 Y161W)": "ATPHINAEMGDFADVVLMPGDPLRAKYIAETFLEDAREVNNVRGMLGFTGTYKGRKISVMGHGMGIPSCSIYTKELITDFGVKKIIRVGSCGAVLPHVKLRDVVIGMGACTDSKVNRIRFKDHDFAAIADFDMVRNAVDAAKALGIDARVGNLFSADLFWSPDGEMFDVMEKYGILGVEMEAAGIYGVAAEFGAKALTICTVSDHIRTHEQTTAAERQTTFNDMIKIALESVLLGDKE", "assay": "Thermophoretic (MST) titrations with phosphate", "design": "made in house; host or cells: E. coli DH5α-T1; species or system E. coli", "settings": "two-binding-site model, 25 °C", "protocol": "Measurements were performed with Monolith NT115 (NanoTemper). Enzyme was labelled with NT647 fluorescent dye (NanoTemper) according to the protocol provided by the manufacturer. Labelled proteins show fluorescence excitation and emission maxima of approximately 650 and 670 nm, respectively. The series of titrations were performed at a constant protein concentration. Both proteins (WT and mutant), and ligands were dissolved in 50 mM Tris/HCl pH 7.6 buffer, measurements were performed at 25 °C. […] In the pre-experiments, it was carefully checked for both proteins, WT and Y160W mutant whether any sign of aggregation or inactivation occurs, and if mutant behaviour is similar to that of the WT enzyme. […]\nFor experiments of the binary complex formation with phosphate, curves were measured at four different powers of the heating laser. Two to five titrations at each heating power were measured, and curves were averaged for a particular heating power. […] This is an area inaccessible in fluorescence titration due to the quenching of the protein fluorescence at such a high ionic strength of the solution. […]\nTitration series were analysed globally, always starting from the simplest, one-binding-site model. […] For all tested models the Akaike information criterion[23] was also calculated. […]"}, "Y160W PNP mutant [2]": {"biological_target": "T1, Y160W PNP mutant", "assay": "Fluorescence titrations with phosphate", "design": "made in house; host or cells: E. coli DH5α-T1; species or system E. coli", "settings": "three-binding-site model, 25 °C", "protocol": "All experiments were carried out on the Perkin-Elmer LS55 spectrofluorimeter. Fluorescence spectra were registered using in each case (protein or protein–ligand complex) several excitation wavelengths. Differential spectra were calculated by subtracting spectrum of a protein from the spectrum of the appropriate complex. The negative differential fluorescence intensity means that a decrease of fluorescence upon complex formation is observed. Titrations of the enzyme with phosphate were registered using several excitation and observation wavelengths combinations. When selecting specific wavelengths for such a combination, two criteria were used: (1) the overall change in the fluorescence signal and (2) the complexity of the shape of the titration as the analysis of the multi-phasic curves is more explicit than a uni-phasic curve analysis.\nPath length for the excitation was 2 mm and for the emission was 5 mm (half of the cuvette dimensions). A continuous stirring was used during titrations. All measurements were performed at 25 °C. […]\nFluorescence intensity of the WT protein is stable over time, but in the case of the Y160W mutant a slight quenching of fluorescence is observed during titration, which typically lasted about 30 min as the time between each point in the titration was 1 min. Furthermore, adding phosphate during titration stabilises the intrinsic fluorescence of the protein. […] Thus corrected binding curves, F^cor([Pi]), are given by the following equation, in which Fn([Pi]) is the fluorescence intensity measured for the phosphate concentration [Pi], and n is the number of a given titration point in the particular titration:4 FncorPi=FnPi+∑m=1naPim\nTo check its influence on the intrinsic protein fluorescence, titrations with NaCl were performed, giving dependence F(I). […] Titration curves of the WT protein with phosphate were therefore measured up to 100 mM ionic strength of solution, which is enough to observe a plateau. […] Both F^obs([Pi]) and F(I) were corrected for the time dependent fluorescence quenching, according to Eq. (4), prior to the F^bind([Pi]) calculation. […]"}, "[3]": {"settings": "50 mM Tris/HCl pH 7.6, read-out: Kd1 ± SD"}, "[4]": {"settings": "50 mM Tris/HCl pH 7.6, read-out: Kd3 ± SD"}}, "note": "pKd: −log10 of the molar value."}
{"smiles": "O=P(O)(O)O", "note": "[Pi, Orthophosphate]", "values": [{"measurement": "pKd", "setting": "Y160W PNP mutant [1]; [3]", "result": 5.49}, {"measurement": "pKd", "setting": "Y160W PNP mutant [1]; [4]", "result": 2.89}, {"measurement": "pKd", "setting": "Y160W PNP mutant [2]; [3]", "result": 5.15}, {"measurement": "pKd", "setting": "Y160W PNP mutant [2]; 50 mM Tris/HCl pH 7.6, read-out: Kd2 ± SD", "result": 3.70}, {"measurement": "pKd", "setting": "Y160W PNP mutant [2]; [4]", "result": 2.49}]}
